Calls of active or inactive are those of the source. The calls are words filed in the database; no cut-off is given here.
Columns and labels:
Staphylococcus aureus [1] = assay: Antimicrobial activity against Staphylococcus aureus ATCC 13709 at 100 mcg/mL by agar dilution-streak method; assay type: functional, organism-based
Escherichia coli = assay: Antimicrobial activity against Escherichia coli ATCC 9637 at 100 mcg/mL by agar dilution-streak method; assay type: functional, organism-based
[2] = tested on: Mycolicibacterium smegmatis; assay: Antimicrobial activity against Mycobacterium smegmatis ATCC 607 at 100 mcg/mL by agar dilution-streak method; assay type: functional, organism-based
[3] = tested on: Salmonella enterica subsp. enterica serovar Gallinarum; assay: Antimicrobial activity against Salmonella gallinarum ATCC 9184 at 100 mcg/mL by agar dilution-streak method; assay type: functional, organism-based
Klebsiella pneumoniae [4] = assay: Antimicrobial activity against Klebsiella pneumoniae ATCC 10031 at 100 mcg/mL by agar dilution-streak method; assay type: functional, organism-based
Candida albicans [5] = assay: Antimicrobial activity against Candida albicans ATCC 10231 at 100 mcg/mL by agar dilution-streak method; assay type: functional, organism-based
Staphylococcus aureus [6] = assay: Antimicrobial activity against Staphylococcus aureus ATCC 13709 by agar dilution-streak method; assay type: functional
Candida albicans [7] = assay: Antimicrobial activity against Candida albicans ATCC 10231 by agar dilution-streak method; assay type: functional
[8] = tested on: Mycolicibacterium smegmatis; assay: Antimicrobial activity against Mycobacterium smegmatis ATCC 607 by agar dilution-streak method; assay type: functional
Klebsiella pneumoniae [9] = assay: Antimicrobial activity against Klebsiella pneumoniae ATCC 10031 by agar dilution-streak method; assay type: functional

Compound	Activity (Staphylococcus aureus [1])	Activity (Escherichia coli)	Activity [2]	Activity [3]	Activity (Klebsiella pneumoniae [4])	Activity (Candida albicans [5])	Activity (Staphylococcus aureus [6])	Activity (Candida albicans [7])	Activity [8]	Activity (Klebsiella pneumoniae [9])
COc1cc(=O)cc2oc(-c3ccccc3)ccc1-2	inactive	inactive	inactive	inactive	inactive	inactive	–	–	–	–
COc1cc(O)cc2c1CC[C@H](c1ccccc1)O2	inactive	inactive	inactive	inactive	inactive	inactive	–	–	–	–
COc1cc2oc3c(C)c(=O)cc4oc(-c5ccccc5)cc(c2c2c1CC[C@@H](c1ccccc1)O2)c43 [DRACORUBIN]	–	inactive	–	inactive	inactive	–	50 µg/mL	12.5 µg/mL	25 µg/mL	–
COc1c2ccc(-c3ccccc3)oc-2cc(=O)c1C [DRACORHODIN]	–	inactive	–	inactive	–	–	50 µg/mL	25 µg/mL	25 µg/mL	100 µg/mL
COc1cc2oc3cc(=O)cc4oc(-c5ccccc5)cc(c2c2c1CC[C@@H](c1ccccc1)O2)c43	inactive	inactive	inactive	inactive	inactive	inactive	–	–	–	–

— ChEMBL document CHEMBL1151403, “Antimicrobial agents from higher plants. Dragon's blood resin” (1982)
